The source of these data is patent publication US20250241347A1, “COMPOSITIONS AND METHODS FOR TASTE MODULATION” (INTERNATIONAL FLAVORS & FRAGRANCES INC., priority 2019, published 2025).

Experiment [1] in a line: Masking effect on sorbic acid, trained panel. Also on record: species or system human. The conditions noted are these: base sorbic acid 150 ppm in water, test sample 0.5 ppm; for Masking Intensity: panel average, scale 0-5. An excerpt: (§1) Preparation of Test Samples: […], oroxylin A-7 glucouronide, wogonoside, baicalein, oroxylin A and wogonin were purchased commercially. S. baicalensis extract (“Extract”) and cabohydrase-treated S. baicalensis extract (“Treated Extract”) were obtained as above in Example 1.
(§2) Subsequently, all compounds and extracts were applied to different bases for evaluating their off-taste masking functions.
(§3) Testing Procedure: The masking effects on the off-tastes (bitterness, sourness, astringency, lingering and drying aftertaste, etc.) associated with various food components was evaluated by a group of 16 trained panelist. Each provided a rank of masking intensity using the intensity scales of 0 to 5, where 0 represents “no masking effect,” 1 represents “minimal masking intensity” and 5 represents “the most masking intensity.” The average of the reported making intensity is presented in the following examples.
A base solution of sorbic acid was prepared in water (150 ppm). […] The flavor profile of the sorbic acid solutions with compounds or extracts were further evaluated and is reported in the following: […]

Experiment [2] can be described thus: Masking effect on Acesulfame-K, trained panel. Details: species or system human. Particulars: base Acesulfame-K 300 ppm in water; for Masking Intensity: panel average, scale 0-5.
Excerpt: as §1, §2, §3
A base solution of Acesulfame-K was prepared in water (300 ppm). […] The flavor profile of the Acesulfame-K solutions with compounds or extracts were further evaluated and is reported in the following: […]

The nature of experiment [3]: Taste modulating activity of the individual compounds. The conditions noted are these: for taste modulation effect: flavone aglycones versus corresponding flavone glycosides; for taste modulating activity: individual compounds, Example 1. On the procedure: With bio-transformation, most baicalin was converted to baicalein; oroxylin A glucuronide was converted to oroxylin A; and wogonoside was converted to wogonin. The activity of the individual compounds was also analyzed for taste modulating activity.

A short description of experiment [4]: Masking effect on Reb A, trained panel. Also on record: species or system human. The conditions noted are these: base Reb A 200 ppm in water; for Masking Intensity: panel average, scale 0-5.
Excerpt: as §1, §2, §3
A base solution of Reb A was prepared in water (200 ppm). […] The flavor profile of the Reb A solutions with compounds or extracts were further evaluated and is reported in the following: […]

Experiment [5] can be described thus: Masking effect on Reb M, trained panel. Particulars: base Reb M 200 ppm in water, test sample 0.5 ppm; for Masking Intensity: panel average, scale 0-5. Details: species or system human.
Excerpt: as §1, §2, §3
A base solution of Reb M was prepared in water (200 ppm). […] The flavor profile of the Reb M solutions with compounds or extracts were further evaluated and is reported in the following: […]

Experiment [6] can be described thus: Masking effect on pea protein, trained panel. The conditions noted are these: base TRUPRO pea protein 5% in water, test sample 0.5 ppm; for Masking Intensity: panel average, scale 0-5. Also on record: species or system human.
Excerpt: as §1, §2, §3
A base solution of TRUPRO® pea protein (Solae LLC) was prepared in water (5%). […] The flavor profile of the pea protein solutions with compounds or extracts were further evaluated and is reported in the following: […]

The nature of experiment [7]: Masking effect on benzoic acid, trained panel. Details: species or system human. Particulars: base benzoic acid 250 ppm in water; for Masking Intensity: panel average, scale 0-5.
Excerpt: as §1, §2, §3
A base solution of benzoic acid was prepared in water (250 ppm). […] The flavor profile of the benzoic acid solutions with compounds or extracts was further evaluated and is reported in the following: […]

Experiment [8] can be described thus: Masking effect on citric acid, trained panel. Details: species or system human. Particulars: base citric acid 300 ppm in water, test sample 0.5 ppm; for Masking Intensity: panel average, scale 0-5.
Excerpt: as §1, §2, §3
A base solution of citric acid was prepared in water (300 ppm). […] The flavor profile of the citric acid solutions with compounds or extracts were further evaluated and is reported in the following: […]

`O=C(O)C1OC(Oc2cc3oc(-c4ccccc4)cc(=O)c3c(O)c2O)C(O)C(O)C1O` (stereo not shown) [Baicalin, 5,6-dihydroxy-7-O-glucuronide flavone, reference compound]: the “Masking Intensity” value in experiment [1], in experiment [2] (test sample 0.5 ppm), in experiment [4] (test sample 0.5 ppm), in experiment [5], in experiment [6] and in experiment [7] (test sample 0.5 ppm) was 1 each time. Besides, in experiment [8], the “Masking Intensity” value is reported as 1. Further, the taste modulation effect entry in experiment [3] is “weak taste modulation effect”. Moreover, in experiment [3], the taste modulating activity entry is recorded as “some activity”.

`COc1c(O)cc2oc(-c3ccccc3)cc(=O)c2c1O` [Oroxylin A, 5,7-dihydroxy-6-methoxyflavone]: the “Flavor Profile” value in experiment [1] is “Reduced astringency, sourness, and drying”; in experiment [2] (test sample 0.1 ppm), “Reduced bitterness and lingering aftertaste”; in experiment [2] (test sample 0.5 ppm), “Reduced bitterness and lingering aftertaste,”; in experiment [2] (test sample 10 ppm) it was “Reduced lingering aftertaste, very slight”; in experiment [2] (test sample 50 ppm), “Reduced lingering aftertaste, noticeable”; in experiment [4] (test sample 0.01 ppm), “Slightly reduced astringency, licorice flavor”. For the same compound, the “Flavor Profile” value in experiment [5] is “Reduced bitterness and lingering aftertaste,”; in experiment [6], “Reduced astringency and bitterness, less”; in experiment [7] (test sample 0.5 ppm), “Reduced astringency, sourness, and drying”; in experiment [7] (test sample 1 ppm), “Reduced astringency, sourness, and drying”; in experiment [7] (test sample 10 ppm), “Reduced astringency, sourness, and drying”; in experiment [7] (test sample 50 ppm), “Reduced astringency, sourness, and drying”. In addition, the “Flavor Profile” value in experiment [8] was “Reduced tart taste, more pleasant”. Also, the “Masking Intensity” value in experiment [1] is on record as 4; in experiment [2] (test sample 0.01 ppm) it was 1; in experiment [2] (test sample 0.1 ppm) it was 3; in experiment [2] (test sample 0.5 ppm), 5; in experiment [2] (test sample 10 ppm) it was 4; in experiment [2] (test sample 50 ppm), 2. For the same compound, the “Masking Intensity” value was 2 in experiment [4] (test sample 0.01 ppm); 3 in experiment [4] (test sample 0.1 ppm); 5 in experiment [4] (test sample 0.5 ppm); 4 in experiment [4] (test sample 10 ppm); 2 in experiment [4] (test sample 50 ppm); 5 in experiment [5]. Besides, the “Masking Intensity” value is 4 in experiment [6]; 0 in experiment [7] (test sample 0.001 ppm); 1 in experiment [7] (test sample 0.01 ppm); 3 in experiment [7] (test sample 0.1 ppm); 4 in experiment [7] (test sample 0.5 ppm); 5 in experiment [7] (test sample 1 ppm). In addition, the “Masking Intensity” value amounted to 4 in experiment [7] (test sample 10 ppm), 3 in experiment [7] (test sample 50 ppm) and 5 in experiment [8]. For the same compound, in experiment [3], the taste modulating activity result is listed as “more active”.

Turning to `COc1c(OC2OC(C(=O)O)C(O)C(O)C2O)cc2oc(-c3ccccc3)cc(=O)c2c1O` [Oroxylin A-7 glucuronide, 5,7-dihydroxy-6-methoxyflavone-7-O-β-D-glucuronopyranoside, reference compound], the “Flavor Profile” value in experiment [1] is “Slightly reduced drying aftertaste”; in experiment [4] (test sample 0.5 ppm), “Slightly reduced astringency, licorice flavor”; in experiment [5] it was “Slightly reduced bitterness and lingering”. Moreover, the “Masking Intensity” value was found to be 2 in experiment [1]; 1 in experiment [2] (test sample 0.5 ppm); 1 in experiment [4] (test sample 0.5 ppm); 2 in experiment [5]; 1 in experiment [6]; 1 in experiment [7] (test sample 0.5 ppm). Further, in experiment [8], the “Masking Intensity” value is recorded as 1. For the same compound, the taste modulation effect result in experiment [3] is listed as “weak taste modulation effect”. Further, in experiment [3], the taste modulating activity entry is “some activity”.

For the compound `COc1c(OC2OC(C(=O)O)C(O)C(O)C2O)cc(O)c2c(=O)cc(-c3ccccc3)oc12` [Wogonoside, wogonin 7-O-β-D-glucuronide, reference compound], the “Masking Intensity” value is recorded as 2 in experiment [1]; 1 in experiment [2] (test sample 0.5 ppm); 1 in experiment [4] (test sample 0.5 ppm); 1 in experiment [5]; 2 in experiment [6]; 1 in experiment [7] (test sample 0.5 ppm). For the same compound, the “Masking Intensity” value in experiment [8] is 1. Moreover, the taste modulation effect entry in experiment [3] is “weak taste modulation effect”. In addition, the taste modulating activity result in experiment [3] is listed as “some activity”. For the same compound, the “Flavor Profile” value in experiment [4] (test sample 0.5 ppm) was “Slightly reduced astringency, licorice flavor”; in experiment [6], “Slightly reduced astringency and bitterness,”.
